Values quoted from earlier work as cited in patent US20090092696A1, “Herbal combination omega oil aphrodisiac” (priority 2007, published 2009).

Tests used:
corpus cavernosum = settings: for erection when injected directly into the corpus cavernosum: hypodermic needle injection; for duration of erection after injection: appropriate dose, intracavernosal
impotent men = settings: ingestion
impotentia erectionis = settings: buccal administration of 100 I.U. three times a day for 14 days

| SMILES | erection when injected directly into the corpus cavernosum (corpus cavernosum) | other results |
| --- | --- | --- |
| CN(C)CCCN1c2ccccc2CCc2ccccc21 [imipramine] | caused erection |  |
| Cc1ccc(N(CC2=NCCN2)c2cccc(O)c2)cc1 [phentolamine] | caused erection |  |
| COC(=O)[C@@H]1[C@H]2C[C@H]3c4[nH]c5ccccc5c4CCN3C[C@@H]2CC[C@@H]1O [Yohimbine] |  | subjective improvement in erectile ability (impotent men; impotent men treated): 38%; treated patients reporting complete satisfaction (impotent men): 5% |
| COc1ccc(Cc2nccc3cc(OC)c(OC)cc23)cc1OC [papaverine] | caused erection | duration of erection after injection (corpus cavernosum): unrelenting erection lasting for hours |
| CC(COc1ccccc1)N(CCCl)Cc1ccccc1 (stereo not drawn) [phenoxybenzamine] | caused erection | duration of erection after injection (corpus cavernosum): unrelenting erection lasting for hours |
| CCN(CC)CCOC(=O)C(Cc1cccc2ccccc12)CC1CCCO1 (mixture of isomers) [naftidrofuryl] | caused erection |  |
| CC(=O)Oc1cc(C(C)C)c(OCCN(C)C)cc1C [thymoxamine] | caused erection |  |
| CC[C@H](C)[C@@H]1NC(=O)[C@H](Cc2ccc(O)cc2)NC(=O)[C@@H](N)CSSC[C@@H](C(=O)N2CCC[C@H]2C(=O)N[C@@H](CC(C)C)C(=O)NCC(N)=O)NC(=O)[C@H](CC(N)=O)NC(=O)[C@H](CCC(N)=O)NC1=O [oxytocin] |  | improvement of impotentia erectionis (impotentia erectionis): 12 of the 16 |
| COc1ccc(CCN(C)CCCC(C#N)(c2ccc(OC)c(OC)c2)C(C)C)cc1OC (stereo not drawn) [verapamil] | caused erection |  |
